This note sets out measurements from article PMC9458111, “New 1,2,3-Triazole-Coumarin-Glycoside Hybrids and Their 1,2,4-Triazolyl Thioglycoside Analogs Targeting Mitochondria Apoptotic Pathway: Synthesis, Anticancer Activity and Docking Simulation” (Molecules, 2022).

The test system of data set [1] is human colon cell line (HCT-116 cell lines). In words: MTT cytotoxicity assay, HCT-116. The class given is cell-based. To be noted: for cytotoxicity at 100 µM: HCT-116, 48 h. The procedure:
(§1) The synthesized compounds were studied for their cytotoxic activity against several human cancer cell lines, namely human osteosarcoma (HOS cell lines), human breast adenocarcinoma (MDA-MB-231 cell lines), human breast cancer (MCF-7 cell lines), human colorectal adenocarcinoma (Caco-2 cell lines) and human colon cell line (HCT-116 cell lines) using MTT assay at 100 µM, and the results were outlined as shown in Table 1.
(§2) Human osteosarcoma (HOS cell line), human breast adenocarcinoma (MDA-MB-231cell lines), human breast cancer (MCF-7 cell lines), human colorectal adenocarcinoma (Caco2 cell lines), human colon cell line (HCT-116 cell lines), normal human cell lines (BJ-1), and “a telomerase immortalized normal foreskin fibroblast cell line” were obtained from Karolinska Center, Department of Oncology and Pathology, Karolinska Institute and Hospital, Stockholm, Sweden.
(§3) Following culturing for 10 days, the cells were seeded at concentration of 10 × 10^3 cells per well in case of MCF-7 & MDA, 20 × 10^3 cells/well in a fresh complete growth medium in case of HCT-116, Caco2, & HOS and 40 × 10^3 cells/well in case of BJ-1 at 37 °C for 24 h in a water jacketed carbon dioxide incubator. After 48 h’ incubation, the medium was aspirated, and then 40 μl MTT salt (2.5 mg/mL) were added for a further 4 h; 200 μl 10% sodium dodecyl sulphate (SDS) in deionized water were added to each well and incubated overnight at 37 °C. The absorbance was measured at 595 nm with reference 690 nm. Doxorubicin was used as positive control, and 0.5% DMSO was used as negative control. IC50 values were calculated, using a probit analysis, and by utilizing the SPSS computer program (SPSS for Windows, statistical analysis software package/version 9/1989 SPSS Inc., Chicago, IL, USA).

Data set [2] deals with human colorectal adenocarcinoma (Caco-2 cell lines). The experiment in a line: MTT cytotoxicity assay, Caco-2. The class given is cell-based. To be noted: Caco-2, 48 h. The procedure: as §1, §2, §3
(Tetrazolium dyes change colour on reduction, which living cells bring about.)

The subject of data set [3] is human osteosarcoma (HOS cell lines). In words: MTT cytotoxicity assay, HOS. The class given is cell-based. To be noted: for cytotoxicity at 100 µM: 48 h; for IC50: MTT, 0.78–100 µM, ± SD. The protocol:
as §1, §2, §3

In data set [4] the test system is human breast cancer (MCF-7 cell lines). In words: MTT cytotoxicity assay, MCF-7. The format is cell-based. The conditions noted are these: MCF7, 48 h. The procedure:
as §1, §2, §3

Data set [5] relates to human breast adenocarcinoma (MDA-MB-231 cell lines). The experiment in a line: MTT cytotoxicity assay, MDA-MB-231. To be noted: for cytotoxicity at 100 µM: MDA-MB-231, 48 h. The format is cell-based. The procedure: as §1, §2, §3
In data set [6] the test system is normal human skin cell lines BJ-1. The experiment in a line: Safety on normal human skin cells BJ-1 (MTT). The class given is cell-based. To be noted: 100 µM. The protocol:
To determine the selectivity and safety, all tested compounds were subjected to an assay for their safety upon normal human skin cell lines BJ-1 at a concentration of 100 µM.
as §2, §3

What is called melting point is the temperature of the solid-liquid transition. The term IC50 denotes the concentration needed to halve the response being measured. Read a low IC50 as inhibition by little substance.

Take `Cn1c(COc2ccc3c(-c4ccccc4)cc(=O)oc3c2)n[nH]c1=S` [Compound 1a]: the cytotoxicity at 100 µM in data set [1] was 16.8 ± 0.1%; in data set [2], 34.8 ± 1.3%; in data set [3], 42.5 ± 1.2%; in data set [4] it was 15.6 ± 0.2%; in data set [5], 24.1 ± 1.4%.

Compound `CC(=O)OC[C@H]1O[C@@H](Sc2nnc(COc3ccc4c(-c5ccccc5)cc(=O)oc4c3)n2C)[C@H](OC(C)=O)[C@@H](OC(C)=O)[C@H]1OC(C)=O` [Compound 3, 4-Phenyl-7-((4-methyl-5-(1-(2,3,4,6-tetra-O-acetyl-β-D-galactopyranosyl)thio)-4H-1,2,4-triazol-3-yl)methoxy)-2H-chromen-2-one] gave a melting point of 211 to 213 °C. This compound also registered a cytotoxicity at 100 µM in data set [1] of 11.1 ± 0.4%. In addition, the cytotoxicity at 100 µM in data set [2] came out at 23.2 ± 1.1%. Further, the cytotoxicity at 100 µM in data set [3] came out at 18.4 ± 0.7%. The same compound displayed a cytotoxicity at 100 µM in data set [4] of 9.8 ± 0.6%. Besides, in data set [5], the cytotoxicity at 100 µM was 15.4 ± 0.5%.

Compound `CCn1c(COc2ccc3c(-c4ccccc4)cc(=O)oc3c2)nnc1S[C@@H]1O[C@H](COC(C)=O)[C@H](OC(C)=O)[C@H](OC(C)=O)[C@H]1OC(C)=O` [Compound 5, 4-Phenyl-7-((4-ethyl-5-(1-(2,3,4,6-tetra-O-acetyl-β-D-galactopyranosyl)thio)-4H-1,2,4-triazol-3-yl)methoxy)-2H-chromen-2-one] returned a melting point of 151 to 152 °C. In data set [1], this compound gave a cytotoxicity at 100 µM of 7.6 ± 0.2%. In data set [2], this compound had a cytotoxicity at 100 µM of 20.6 ± 0.3%. Moreover, the cytotoxicity at 100 µM in data set [3] stood at 24.9 ± 0.6%. In addition, the cytotoxicity at 100 µM in data set [4] came to 2.8 ± 0.2%. Further, the cytotoxicity at 100 µM in data set [5] turned out to be 18.5 ± 0.6%.

As for `O=c1cc(-c2ccccc2)c2ccc(O)cc2o1` [Compound 15, 7-hydroxy-4-phenyl-2H-chromen-2-one], the cytotoxicity at 100 µM in data set [1] turned out to be 89.3 ± 0.7%; in data set [2] it was 46.1 ± 0.6%; in data set [3], 62.7 ± 1.5%; in data set [4], 36.8 ± 1.1%; in data set [5] it was 34.5 ± 0.4%. Also, the IC50 in data set [1] (HCT-116, MTT, 0.78–100 µM, ± SD) came out at 46 ± 2.2 µM; in data set [3], 88.3 ± 2.2 µM.

For `Cn1c(COc2ccc3c(-c4ccccc4)cc(=O)oc3c2)nnc1S[C@@H]1O[C@H](CO)[C@H](O)[C@H](O)[C@H]1O` [Compound 7, 4-Phenyl-7-((4-methyl-5-(1-(β-D-galactopyranosyl)thio)-4H-1,2,4-triazol-3-yl)methoxy)-2H-chromen-2-one], the cytotoxicity at 100 µM is 16.6 ± 0.8% in data set [1]; 35.7 ± 0.3% in data set [2]; 7.3 ± 0.3% in data set [3]; 14.3 ± 0.2% in data set [4]; 15.5 ± 1.1% in data set [5].

Consider `CC(=O)OC[C@H]1O[C@@H](OCc2cn(CCCCOc3ccc4c(-c5ccccc5)cc(=O)oc4c3)nn2)[C@H](OC(C)=O)[C@@H](OC(C)=O)[C@H]1OC(C)=O` [Compound 23], for which the melting point fell in the range of 118 to 119 °C. In data set [1], this compound displayed a cytotoxicity at 100 µM of 30.4 ± 0.7%. This compound also showed a cytotoxicity at 100 µM in data set [2] of 13.6 ± 0.4%. Moreover, the cytotoxicity at 100 µM in data set [3] amounted to 0%. The cytotoxicity at 100 µM in data set [4] turned out to be 35.2 ± 0.3%. This compound gave a cytotoxicity at 100 µM in data set [5] of 28.6 ± 0.2%.

Compound `CC(=O)O[C@@H]1[C@@H](OC(C)=O)[C@H](Sc2nnc(COc3ccc4c(-c5ccccc5)cc(=O)oc4c3)n2C)OC[C@H]1OC(C)=O` [Compound 4, 4-Phenyl-7-((4-methyl-5-(1-(2,3,4-tri-O-acetyl-β-D-xylopyranosyl)thio)-4H-1,2,4-triazol-3-yl)methoxy)-2H-chromen-2-one] came in with a melting point of 132 to 133 °C. In data set [1], this compound gave a cytotoxicity at 100 µM of 15 ± 0.6%. In addition, the cytotoxicity at 100 µM in data set [2] was 24.9 ± 0.6%. Also, in data set [3], the cytotoxicity at 100 µM was 45.5 ± 0.6%. Also, the cytotoxicity at 100 µM in data set [4] amounted to 17.1 ± 0.3%. Further, in data set [5], the cytotoxicity at 100 µM is 36.9 ± 1.2%.

As to `CCn1c(COc2ccc3c(-c4ccccc4)cc(=O)oc3c2)n[nH]c1=S` [Compound 1b], the cytotoxicity at 100 µM in data set [1] is 81 ± 1.2%; in data set [2], 77.7 ± 0.8%; in data set [3], 92 ± 2.1%; in data set [4] it was 88 ± 1.4%; in data set [5], 69.7 ± 2.4%. Besides, the “Toxicity on normal skin cells BJ-1 (in words)” value in data set [6] was “high toxicity”.

For the compound `O=c1cc(-c2ccccc2)c2ccc(OCCCI)cc2o1` [Compound 16, 7-(3-Iodopropoxy)-4-phenyl-2H-chromen-2-one], the melting point lay within 130 to 131 °C. Besides, the cytotoxicity at 100 µM in data set [1] came out at 12.8 ± 1.1%. In data set [2], the cytotoxicity at 100 µM came to 54.3 ± 0.4%. Further, in data set [3], the cytotoxicity at 100 µM amounted to 91.2 ± 2.2% and the IC50 turned out to be 26.2 ± 1.4 µM. In data set [4], the cytotoxicity at 100 µM came out at 35.6 ± 0.8%. In addition, the cytotoxicity at 100 µM in data set [5] is 88.3 ± 1.4%. In data set [5] (MDA-MB-231, MTT, 0.78–100 µM, ± SD), this compound came in with a concentration for half-maximal inhibition (IC50) of 39.5 ± 0.9 µM.

With `[N-]=[N+]=NCCCOc1ccc2c(-c3ccccc3)cc(=O)oc2c1` [Compound 18, 7-(3-Azidopropoxy)-4-phenyl-2H-chromen-2-one], the melting point lay within 110 to 111 °C.

Compound `O=c1cc(-c2ccccc2)c2ccc(OCCCCI)cc2o1` [Compound 17, 7-(4-Iodobutoxy)-4-phenyl-2H-chromen-2-one] came in with a melting point of 143 to 145 °C. The compound further yielded a cytotoxicity at 100 µM in data set [1] of 38.2 ± 0.7%. The cytotoxicity at 100 µM in data set [2] was determined as 34.3 ± 0.3%. In addition, the cytotoxicity at 100 µM in data set [3] came out at 50.8 ± 0.7%. The compound further gave a cytotoxicity at 100 µM in data set [4] of 38.5 ± 1.2%. The compound also returned a cytotoxicity at 100 µM in data set [5] of 7.7 ± 0.4%.

On to `[N-]=[N+]=NCCCCOc1ccc2c(-c3ccccc3)cc(=O)oc2c1` [Compound 19, 7-(4-Azidobutoxy)-4-phenyl-2H-chromen-2-one], for which the melting point is 114 to 116 °C.

Turning to `CCn1c(COc2ccc3c(-c4ccccc4)cc(=O)oc3c2)nnc1S[C@@H]1O[C@H](CO)[C@H](O)[C@H](O)[C@H]1O` [Compound 9, 4-Phenyl-7-((4-ethyl-5-(1-(β-D-galactopyranosyl)thio)-4H-1,2,4-triazol-3-yl)meth-oxy)-2H-chromen-2-one], the melting point is 184 to 185 °C. This compound came in with a cytotoxicity at 100 µM in data set [1] of 22.7 ± 0.9%. The same compound showed a cytotoxicity at 100 µM in data set [2] of 1.7 ± 0.1%. In data set [3], this compound showed a cytotoxicity at 100 µM of 20.4 ± 0.4%. The cytotoxicity at 100 µM in data set [4] worked out at 37.8 ± 0.3%. Moreover, in data set [5], the cytotoxicity at 100 µM came to 27.7 ± 0.4%.

`CCn1c(COc2ccc3c(-c4ccccc4)cc(=O)oc3c2)nnc1S[C@@H]1OC[C@@H](OC(C)=O)[C@H](OC(C)=O)[C@H]1OC(C)=O` [Compound 6, 4-Phenyl-7-((4-ethyl-5-(1-(2,3,4-tri-O-acetyl-β-D-xylopyranosyl)thio)-4H-1,2,4-triazol-3-yl)methoxy)-2H-chromen-2-one] displayed a melting point of 127 to 128 °C. In data set [1], this compound registered a cytotoxicity at 100 µM of 18.9 ± 0.6%. The compound further registered a cytotoxicity at 100 µM in data set [2] of 30.1 ± 0.1%. Besides, the cytotoxicity at 100 µM in data set [3] came to 33.1 ± 0.2%. In data set [4], this compound gave a cytotoxicity at 100 µM of 14.3 ± 0.1%. In data set [5], this compound showed a cytotoxicity at 100 µM of 7.4 ± 0.3%.

`Cn1c(COc2ccc3c(-c4ccccc4)cc(=O)oc3c2)nnc1SCC(O)CO` (stereo not drawn) [Compound 13, 4-Phenyl-7-((5-((2,3-dihydroxypropyl)thio)-4-methyl-4H-1,2,4-triazol-3-yl)meth-oxy)-2H-chromen-2-one] registered a melting point of 170 to 171 °C. The cytotoxicity at 100 µM in data set [1] was 26.1 ± 0.3%. Moreover, the cytotoxicity at 100 µM in data set [2] was 16.6 ± 0.7%. In data set [3], this compound yielded a cytotoxicity at 100 µM of 2.8 ± 0.2%. In data set [4], the cytotoxicity at 100 µM was determined as 51.9 ± 0.2%. In addition, in data set [5], the cytotoxicity at 100 µM was 0%.
